Data taken from PMC7315563, “Bioactive fluorenes. Part III: 2,7-dichloro-9H-fluorene-based thiazolidinone and azetidinone analogues as anticancer and antimicrobial against multidrug resistant strains agents” (BMC Chemistry, 2020).
≈ marks a conversion by molar mass, not a printed value.

Tests used:
[1] = tested on: Klebsiella pneumoniae (K. pneumoniae), multidrug resistant clinical isolate; test: agar well diffusion assay; assay type: cell-based; settings: 24 h, 500 µg/mL of tested compound
From the text: (§1) All microbial strains were kindly provided from the department of Medical Microbiology and Immunology faculty of Medicine Assiut University, these clinical isolates were obtained from clinical cases of infections admitted to Assiut University hospital as urinary tract infections, corneal ulcers, bacterial and fungal pneumonia, otomycosis, oral thrush and wound infections.
(§2) The clinical isolates used were multidrug resistant strains, they were resistant to β lactam (penicillin, amoxacillin, oxacillin), cephalosporins (cefazolin, cefaclor and cefepime) and macrolides (erythromycin and clarithromycin), they included Gram positive bacteria as Staphylococcus aureus (S. aureus), Methicillin-resistant Staphylococcus aureus (MRSA), Streptococcus pneumoniae (S. pneumoniae), and Gram negative bacteria as Escherichia coli (E. coli), Klebsiella pneumoniae (K. pneumoniae), Pseudomonas aeruginosa (P. aeruginosa), and Acinetobacter baumannii (A. baumannii). The fungal strains that were tested are Aspergillus flavus (A. flavus), A. niger (A. niger) and Candida albicans (C. albicans).
(§3) The antimicrobial activity of the fluorene derivatives was initially evaluated by agar well diffusion assay. Mueller–Hinton agar (CM0337) was poured into Petri dishes at 50–60 °C and left to solidify for 15 min. Subsequently, overnight microbial suspensions of tested strains was adjusted to turbidity of 0.5 McFarland Standard, which equals to 1–2 × 10^8 CFU/mL for bacteria and 1–5 × 10^6 for fungi. The microbial inoculums were then diluted in 1:100 ratio in case of bacteria and 1:10 ratio in case of fungi in order to get 1–5 × 10^5 CFU/mL. a sterile cotton swab was dipped into the adjusted microbial suspension and the Mueller–Hinton agar plates were inoculated by evenly streaking cotton swab over the agar medium. Then wells with a diameter of 0.5 cm were cut in the medium with a sterile cork borer. Stock solutions of the flourene derivatives were diluted in DMSO 1% to get 500 μg/mL concentrations. The tested flourene derivatives and controls (50 μL) were dispensed into the wells. The plates were incubated for 24 h at 37 °C for bacteria and C. albicans while at 25 °C for A. falvus and A. niger. The diameters of zones of inhibition (ZOI) around the wells were measured in mm. Following control agents were used: positive control agents—vancomycin (50 μg/mL) for Gram positive bacteria, gentamicin (10 μg/mL) (for Gram negative bacteria) and fluconazole 25 μg/mL for fungi and negative control agent is 1% DMSO.

[2] = tested on: Escherichia coli (E. coli), multidrug resistant clinical isolate; test: agar well diffusion assay; assay type: cell-based; settings: 24 h, 500 µg/mL of tested compound
From the text: as §1, §2, §3

[3] = tested on: A549 human lung cancer cells; test: cell viability assay (MTT); assay type: cell-based; settings: 24 h; for viability at 1 µg/mL: read-out: Validity (%) for sample concentrations (µg/mL) 1; for viability at 10 µg/mL: read-out: Validity (%) for sample concentrations (µg/mL) 10; for viability at 31.25 µg/mL: read-out: Validity (%) for sample concentrations (µg/mL) 31.25; for viability at 62.5 µg/mL: 62.50 µg/mL, read-out: Validity (%) for sample concentrations (µg/mL) 62.50; for viability at 125 µg/mL: read-out: Validity (%) for sample concentrations (µg/mL) 125; for viability at 250 µg/mL: read-out: Validity (%) for sample concentrations (µg/mL) 250; for viability at 500 µg/mL: read-out: Validity (%) for sample concentrations (µg/mL) 500; for viability at 1000 µg/mL: read-out: Validity (%) for sample concentrations (µg/mL) 1000
Method: WI-38 normal lung fibroblast cells, A549 lung cancer cells, and MDA-MB-231 breast cancer cells were obtained from VACSERA—Cell Culture Unit, Cairo, Egypt. The cell lines were originally obtained from the American Tissue Culture Collection (ATCC). WI-38, A549, and MDA-MB-231 cell lines were cultured in RPMI-1640 medium supplemented with 10% inactivate fetal bovine serum (FBS) and 1% penicillin/streptomycin were bought (Gibco, Invitrogen, CA). WI-38, A549, and MDA-MB-231 cells were seeded into 96-well plates (at a density of 5000 cells/well). […] Cell viability was then assessed using the MTT assay (Sigma Aldrich, St. Louis, MO, USA), and the absorbance was read at 570 nm using an ELISA microplate reader (Molecular Devices, Downingtown, PA, USA).

[4] = tested on: WI-38 human normal fibroblast cells; test: cell viability assay (MTT); assay type: cell-based; settings: 24 h; for viability at 31.25 µg/mL: read-out: Validity (%) for sample concentrations (µg/mL) 31.25; for viability at 62.5 µg/mL: 62.50 µg/mL, read-out: Validity (%) for sample concentrations (µg/mL) 62.50; for viability at 125 µg/mL: read-out: Validity (%) for sample concentrations (µg/mL) 125; for viability at 250 µg/mL: read-out: Validity (%) for sample concentrations (µg/mL) 250; for viability at 500 µg/mL: read-out: Validity (%) for sample concentrations (µg/mL) 500
Method: (§4) WI-38 normal lung fibroblast cells, A549 lung cancer cells, and MDA-MB-231 breast cancer cells were obtained from VACSERA—Cell Culture Unit, Cairo, Egypt. The cell lines were originally obtained from the American Tissue Culture Collection (ATCC). WI-38, A549, and MDA-MB-231 cell lines were cultured in RPMI-1640 medium supplemented with 10% inactivate fetal bovine serum (FBS) and 1% penicillin/streptomycin were bought (Gibco, Invitrogen, CA). WI-38, A549, and MDA-MB-231 cells were seeded into 96-well plates (at a density of 5000 cells/well). On the following day, cells were treated with different concentrations (0, 1, 10, 31.25, 62.5, 125, 250, 500 µg/mL) of 16 fluorene derivatives in fresh medium and incubated for another 24 h. Cell viability was then assessed using the MTT assay (Sigma Aldrich, St. Louis, MO, USA), and the absorbance was read at 570 nm using an ELISA microplate reader (Molecular Devices, Downingtown, PA, USA).

[5] = tested on: MDA-MB-231 human breast cancer cells; test: cell viability assay (MTT); assay type: cell-based; settings: 24 h; for viability at 1 µg/mL: read-out: Validity (%) for sample concentrations (µg/mL) 1; for viability at 10 µg/mL: read-out: Validity (%) for sample concentrations (µg/mL) 10; for viability at 31.25 µg/mL: read-out: Validity (%) for sample concentrations (µg/mL) 31.25; for viability at 62.5 µg/mL: read-out: Validity (%) for sample concentrations (µg/mL) 62.5; for viability at 125 µg/mL: read-out: Validity (%) for sample concentrations (µg/mL) 125; for viability at 250 µg/mL: read-out: Validity (%) for sample concentrations (µg/mL) 250; for viability at 500 µg/mL: read-out: Validity (%) for sample concentrations (µg/mL) 500
Method: as §4

[6] = tested on: A549 cells; test: FACS analysis, Annexin V and PI staining; assay type: cell-based, human; settings: 24 h, 5g 500, 6c 85, 6d 117, 6k 200 µg/mL
Method: (§5) To uncover the mechanism of cell death for the compounds 5h, 6c, 6d and 6k on WI-38, A549, and MDA-MB-231 cells; Annexin v and propedium Iodide (PI) were used. In brief, WI-38, A549, MDA-MB-231 cells were cultured in 10 tissue culture dish with initial number 4 × 10^5 cell/Ml in RPMI growth media. In the following day, cells were treated with 6c, 6d and 6k as the following; (0.0, 500 μg/mL form each drug for WI-38 treatment, 0.0, 85, 117 and 200 μg/mL; respectively, for […] and 0.0, 250 from each for MDA-MB-231 cells treatment). After 24 h incubations, cells were washed and trypsinized and suspended in 50 μL 1X Annexin v binding buffer followed by adding 5 μL FITC Annexin V and incubated for 15 min at room temperature then 5 μL of PI were added to each tube. Finally, 400 μL of 1X Annexin v binding buffer were added to each tube and analyzed using Becton-Dickinson FACS Caliber.

[7] = tested on: WI-38 cells; test: FACS analysis, Annexin V and PI staining; assay type: cell-based, human; settings: 24 h, 5g 1000 µg/mL, 6c, 6d, 6k 500 µg/mL
Method: as §5

[8] = tested on: Staphylococcus aureus (S. aureus), multidrug resistant clinical isolate; test: agar well diffusion assay; assay type: cell-based; settings: Staphylococcus aureus; S. aureus; 500 µg/mL of tested compound; 24 h
From the text: as §1, §2, §3

[9] = tested on: MDA-MB-231 cells; test: FACS analysis, Annexin V and PI staining; assay type: cell-based, human; settings: 24 h, 5g 500, 6c 105, 6d 170, 6k 130 µg/mL
Method: To uncover the mechanism of cell death for the compounds 5h, 6c, 6d and 6k on WI-38, A549, and MDA-MB-231 cells; Annexin v and propedium Iodide (PI) were used. In brief, WI-38, A549, MDA-MB-231 cells were cultured in 10 tissue culture dish with initial number 4 × 10^5 cell/Ml in RPMI growth media. […] After 24 h incubations, cells were washed and trypsinized and suspended in 50 μL 1X Annexin v binding buffer followed by adding 5 μL FITC Annexin V and incubated for 15 min at room temperature then 5 μL of PI were added to each tube. Finally, 400 μL of 1X Annexin v binding buffer were added to each tube and analyzed using Becton-Dickinson FACS Caliber.

| IC50 [3] | SMILES | viability at 1 µg/mL [3] | viability at 10 µg/mL [3] | viability at 31.25 µg/mL [3] | viability at 62.5 µg/mL [3] | viability at 125 µg/mL [3] | viability at 250 µg/mL [3] | viability at 500 µg/mL [3] | viability at 1000 µg/mL [3] | viability at 31.25 µg/mL [4] | viability at 62.5 µg/mL [4] | viability at 125 µg/mL [4] | viability at 250 µg/mL [4] | viability at 500 µg/mL [4] | IC50 [4] | viability at 1 µg/mL [5] | viability at 10 µg/mL [5] | viability at 31.25 µg/mL [5] | viability at 62.5 µg/mL [5] | viability at 125 µg/mL [5] | also measured |
| --- | --- | --- | --- | --- | --- | --- | --- | --- | --- | --- | --- | --- | --- | --- | --- | --- | --- | --- | --- | --- | --- |
| 801 µg/mL (≈ 1530 µM) | O=C1C(Cl)C(C=Cc2ccccc2)N1c1nc(-c2cc(Cl)cc3c2-c2ccc(Cl)cc2C3)cs1 (stereo not drawn) [6i, 3-Chloro-1-(4-(2,7-dichloro-9H-fluoren-4-yl)thiazol-2-yl)-4-styrylazetidin-2-one] | 96.6% | 91.9% | 89.4% | 78.1% | 76.3% | 67.9% | 53.3% | 49.4% | 83.1% | 76.5% | 56.5% | 49.2% | 39.2% | 240 µg/mL (≈ 458 µM) | 94.2% | 89.1% | 66.8% | 55.9% | 49.2% | zone of inhibition at 500 µg/mL [1]: 3 mm; zone of inhibition at 500 µg/mL [2]: 12 mm; melting point: 110 to 112 °C; viability at 250 µg/mL [5]: 24.3%; viability at 500 µg/mL [5]: 18.2%; IC50 [5]: 120 µg/mL (≈ 229 µM) |
| 572 µg/mL (≈ 1060 µM) | O=C(O)c1ccc(C2SCC(=O)N2c2nc(-c3cc(Cl)cc4c3-c3ccc(Cl)cc3C4)cs2)cc1 (stereo not drawn) [5g, 4-(3-(4-(2,7-Dichloro-9H-fluoren-4-yl)thiazol-2-yl)-4-oxothiazolidin-2-yl)benzoic acid] | 93.7% | 90.3% | 88.7% | 78.6% | 84.1% | 75.7% | 56.3% | 16.8% | 96.7% | 95.1% | 90.2% | 85.8% | 79.2% | > 500 µg/mL | 92.6% | 87.3% | 80.9% | 72.2% | 67.7% | apoptotic cell death (of total cell number) [6]: 1.25%; necrotic cell death (of total cell number) [6]: 16.7%; apoptotic cell death (of total cell number) [7]: 1.5%; necrotic cell death (of total cell number) [7]: 15.8%; zone of inhibition at 500 µg/mL [8]: 10 mm; apoptotic cell death (of total cell number) [9]: 1.34%; necrotic cell death (of total cell number) [9]: 14.1%; viability at 250 µg/mL [5]: 63.2%; viability at 500 µg/mL [5]: 58.5%; IC50 [5]: > 500 µg/mL |
| 380 µg/mL (≈ 695 µM) | O=C1CSC(c2ccnc3ccccc23)N1c1nc(-c2cc(Cl)cc3c2-c2ccc(Cl)cc2C3)cs1 (stereo not drawn) [5n, 3-(4-(2,7-Dichloro-9H-fluoren-4-yl)thiazol-2-yl)-2-(quinolin-4-yl)thiazolidin-4-one] | 94.2% | 91.2% | 83.1% | 78.6% | 70.7% | 58.9% | 27.3% | 8.02% | 54.3% | 51.5% | 50.8% | 46.4% | 40.5% | 130 µg/mL (≈ 238 µM) | 98.7% | 91% | 92.8% | 90.6% | 76.8% | zone of inhibition at 500 µg/mL [1]: 5 mm; zone of inhibition at 500 µg/mL [8]: 7 mm; melting point: 204 to 206 °C; viability at 250 µg/mL [5]: 58.7%; viability at 500 µg/mL [5]: 27.2%; IC50 [5]: 315 µg/mL (≈ 576 µM) |
| 357 µg/mL (≈ 719 µM) | O=C1CSC(c2ccncc2)N1c1nc(-c2cc(Cl)cc3c2-c2ccc(Cl)cc2C3)cs1 (stereo not drawn) [5m, 3-(4-(2,7-Dichloro-9H-fluoren-4-yl)thiazol-2-yl)-2-(pyridin-4-yl)thiazolidin-4-one] | 94% | 92.5% | 70.7% | 67.5% | 64.5% | 56.5% | 37.3% | 20.1% | 68.5% | 64.6% | 42.3% | 40.3% | 26.5% | 92 µg/mL (≈ 185 µM) | 97.3% | 89.5% | 85.4% | 88.3% | 76.9% | zone of inhibition at 500 µg/mL [8]: 5 mm; zone of inhibition at 500 µg/mL [2]: 8 mm; melting point: 110 to 112 °C; viability at 250 µg/mL [5]: 65.6%; viability at 500 µg/mL [5]: 50.6%; IC50 [5]: 505 µg/mL (≈ 1020 µM) |
